This is an account of results in paper PMC5062470, “The mGluR2 positive allosteric modulator, SAR218645, improves memory and attention deficits in translational models of cognitive symptoms associated with schizophrenia” (Scientific Reports, 2016).

Structures are written as SMILES.

In assay [1] the target is rat mGluR2 (Rattus norvegicus, UniProt P31421). The assay can be described thus: Ca2+ mobilization assay, HEK293 cells expressing rat mGluR2/Gα16. A general note: A change in cytosolic calcium serves as a functional read-out for many receptors and channels.
rat mGluR2, sequence (P31421 19-872): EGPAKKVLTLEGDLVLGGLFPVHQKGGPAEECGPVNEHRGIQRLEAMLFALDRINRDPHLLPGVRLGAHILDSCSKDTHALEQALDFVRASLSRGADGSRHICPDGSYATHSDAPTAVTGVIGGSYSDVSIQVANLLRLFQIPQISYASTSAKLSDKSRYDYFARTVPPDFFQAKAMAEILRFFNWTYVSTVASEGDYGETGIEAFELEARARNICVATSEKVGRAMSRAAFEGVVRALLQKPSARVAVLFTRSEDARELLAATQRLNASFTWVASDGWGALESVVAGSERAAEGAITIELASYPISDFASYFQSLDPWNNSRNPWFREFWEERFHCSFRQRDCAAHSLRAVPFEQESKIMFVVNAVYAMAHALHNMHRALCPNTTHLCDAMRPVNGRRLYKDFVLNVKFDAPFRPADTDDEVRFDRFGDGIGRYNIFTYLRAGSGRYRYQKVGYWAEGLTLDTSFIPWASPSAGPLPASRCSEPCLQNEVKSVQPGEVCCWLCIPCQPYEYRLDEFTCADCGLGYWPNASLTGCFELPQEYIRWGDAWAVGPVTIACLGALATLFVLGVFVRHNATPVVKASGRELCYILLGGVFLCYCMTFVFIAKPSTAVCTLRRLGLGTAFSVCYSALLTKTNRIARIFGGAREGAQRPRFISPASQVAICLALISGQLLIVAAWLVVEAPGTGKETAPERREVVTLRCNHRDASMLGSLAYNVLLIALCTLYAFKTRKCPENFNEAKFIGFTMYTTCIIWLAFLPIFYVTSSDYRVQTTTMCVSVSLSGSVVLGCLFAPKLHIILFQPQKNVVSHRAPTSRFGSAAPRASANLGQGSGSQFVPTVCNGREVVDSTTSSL
Protocol: Recombinant rat and human mGluR2 receptors were stably expressed in HEK293 Flp-in-T-REx cell lines with Gα16. Receptor and G-protein expression were induced with either tetracycline or doxycycline 20–24 hr before the experiment. Growth medium was replaced with HBSS buffer containing Ca^2+ and Mg^2+, 20 mM HEPES. Calcium mobilization was monitored using Fluo-4 or Calcium-3 dye on a Functional Drug Screening System (FDSS) reader (Hamamatsu Photonics, Hamamatsu City, Japan). Responses were measured as peak fluorescence intensity minus basal fluorescence. EC50 values were calculated using 4-parameter curve fitting.
In assay [2] the target is human mGluR2 (Homo sapiens, UniProt Q14416). The assay can be described thus: Ca2+ mobilization assay, HEK293 cells expressing human mGluR2/Gα16. The class given is cell-based. Details: expressed in transfected cells; host or cells: HEK293 Flp-in-T-REx (inducible), co-expressing Gα16.
human mGluR2, sequence (Q14416 19-872): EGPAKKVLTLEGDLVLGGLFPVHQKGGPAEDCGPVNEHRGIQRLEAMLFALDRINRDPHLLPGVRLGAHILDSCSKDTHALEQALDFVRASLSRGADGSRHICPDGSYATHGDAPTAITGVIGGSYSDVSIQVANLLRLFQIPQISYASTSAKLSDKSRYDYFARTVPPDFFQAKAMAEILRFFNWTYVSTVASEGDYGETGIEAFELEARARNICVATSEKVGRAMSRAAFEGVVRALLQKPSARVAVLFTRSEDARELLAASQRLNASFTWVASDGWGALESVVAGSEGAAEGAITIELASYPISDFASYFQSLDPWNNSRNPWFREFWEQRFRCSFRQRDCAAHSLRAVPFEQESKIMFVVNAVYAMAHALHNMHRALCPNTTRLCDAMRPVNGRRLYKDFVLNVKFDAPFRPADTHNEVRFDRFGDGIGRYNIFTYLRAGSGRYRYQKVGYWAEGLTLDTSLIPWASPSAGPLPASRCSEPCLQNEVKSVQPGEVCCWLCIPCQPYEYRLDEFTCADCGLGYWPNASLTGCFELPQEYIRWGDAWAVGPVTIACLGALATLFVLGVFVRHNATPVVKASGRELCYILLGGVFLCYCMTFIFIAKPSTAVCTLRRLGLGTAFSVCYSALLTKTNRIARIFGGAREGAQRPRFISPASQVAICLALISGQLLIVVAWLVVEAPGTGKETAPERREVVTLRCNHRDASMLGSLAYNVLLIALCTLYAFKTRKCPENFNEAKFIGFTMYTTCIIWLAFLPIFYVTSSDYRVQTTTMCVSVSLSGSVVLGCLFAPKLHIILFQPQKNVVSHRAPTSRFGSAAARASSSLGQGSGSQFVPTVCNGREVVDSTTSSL
Assay [3] concerns mice. Details: method as in earlier work. As to conditions: cited from earlier work.
In assay [4] the test system is mice. Details: method as in earlier work. The note with it: wide dose-range; cited from earlier work.
In assay [5] the test system is Swiss mice. The experiment in a line: Amphetamine-induced locomotor hyperactivity. The class given is in vivo. As for the experimental part:
(§1) An actimeter device consisting of a cylinder (20 cm diameter, 9.5 cm height, Apelex, France) equipped with two perpendicular light beams located 1.5 cm above the floor was used. Mice from the transgenic batches (DAT^−/− and NMDA Nr1^neo−/−) were orally pretreated with either SAR218645 or vehicle and individually isolated in boxes for a period of 60 min. Animals were then placed in the actimeter device and locomotor activity (number of interrupted light beams) was recorded for a period of 30 or 60 min. Mice in which the expression of the dopamine transporter (DAT) was knocked out (i.e., the DAT^−/− mouse) have been proposed as a reliable model of the positive symptoms of schizophrenia. In these mice, dopamine levels in the synapse are dramatically elevated and these animals are hyperactive and agitated in behavioral tests. […] Immediately following amphetamine challenge, 30 min after MK-801 challenge, mice were placed in the actimeter devices and locomotor activity was recorded for a period of 30 (DAT^−/−) or 60 (NMDA Nr1^neo−/−) min.
(§2) Statistical analyses were performed using SAS V8.2 software (SAS Institute, Cary, NC, USA). The number of light beam breaks (motility count) recorded for 30 or 60 min were analyzed using one-way ANOVAs using a fixed factor of challenge or genotype and complementary post hoc (Newman-Keuls) tests were performed. […]

Assay [6] deals with Swiss mice. The assay can be described thus: MK-801-induced locomotor hyperactivity. The class given is in vivo. The procedure:
as §1, §2

Assay [7] addresses T1, human mGluR8 (Homo sapiens, UniProt O00222).
T1 construct: host or cells: HEK293 co-expressing Gqi5
The experiment in a line: Multispan Allosteric Profiling panel, Ca2+ (Gqi5). In kind it is cell-based.

For assay [8], the system named is CD-1 mice. The experiment in a line: DOI-induced head-twitch behaviors. In kind it is in vivo. As for the experimental part: Male CD-1 mice weighing 25–30 g at the time of testing were used. Animals were brought into the testing area and allowed at least 30 min to acclimatize. The behavior observation was conducted in a wire test chamber measuring 10 cm^3. SAR218645 or the selective 5-HT2A receptor antagonist, volinanserin, was administered po at various times before administration of DOI. DOI was injected ip at a dose of 1 mg/kg. Five minutes later behavioral observation commenced. A trained (blinded) observer continuously watched the mice for 20 min and noted the number of DOI-induced head twitches during this time. The number of head twitches per group was averaged and SAR218645 or volinanserin plus DOI were compared to DOI alone. Three to eight animals per group were used.

Where [9] appears, read: dose-range 0.1–10, po, Swiss mice.

T1 sequence (O00222 34-908): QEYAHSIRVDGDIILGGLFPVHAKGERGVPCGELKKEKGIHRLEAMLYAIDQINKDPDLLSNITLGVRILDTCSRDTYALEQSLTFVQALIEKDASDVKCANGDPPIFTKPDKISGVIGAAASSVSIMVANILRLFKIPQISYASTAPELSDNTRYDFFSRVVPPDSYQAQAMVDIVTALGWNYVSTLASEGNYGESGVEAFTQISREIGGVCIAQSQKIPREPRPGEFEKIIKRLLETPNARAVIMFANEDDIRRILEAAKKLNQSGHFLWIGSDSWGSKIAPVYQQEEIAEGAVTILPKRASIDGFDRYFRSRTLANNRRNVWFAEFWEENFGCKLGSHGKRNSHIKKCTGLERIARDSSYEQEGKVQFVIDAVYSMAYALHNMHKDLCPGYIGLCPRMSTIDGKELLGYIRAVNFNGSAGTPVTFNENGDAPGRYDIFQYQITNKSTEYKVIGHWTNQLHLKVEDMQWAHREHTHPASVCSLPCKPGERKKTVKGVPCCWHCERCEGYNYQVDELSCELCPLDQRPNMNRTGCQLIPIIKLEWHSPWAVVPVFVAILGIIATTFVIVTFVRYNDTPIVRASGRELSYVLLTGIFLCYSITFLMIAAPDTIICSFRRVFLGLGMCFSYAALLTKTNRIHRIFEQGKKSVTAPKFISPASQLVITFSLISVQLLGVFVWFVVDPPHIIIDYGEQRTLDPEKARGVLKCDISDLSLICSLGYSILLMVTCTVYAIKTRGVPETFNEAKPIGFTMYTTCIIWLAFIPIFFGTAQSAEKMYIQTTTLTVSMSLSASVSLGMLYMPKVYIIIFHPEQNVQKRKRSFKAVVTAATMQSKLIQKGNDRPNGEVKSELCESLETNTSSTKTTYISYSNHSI

Turning to `CC1(C)CCc2cc(OC[C@@H]3Cn4ccc(=O)nc4O3)ccc21` [SAR218645, (S)-2-(1,1-dimethyl-indan-5-yloxymethyl)-2,3-dihydro-oxazolo[3,2-a]pyrimidin-7-one], the “effect on response to EC10 glutamate” value in assay [1] (EC10 concentration (100 nM) of glutamate) is “enhanced sensitivity to glutamate”. Further, in assay [1] (absence of glutamate), the “intrinsic agonism (compound alone)” value is listed as “no effect per se”. The “effect on maximal response to glutamate” value in assay [1] (increasing concentrations of SAR218645) is reported as “no significant increase”. Besides, the “enhancement of glutamate potency (leftward shift of glutamate concentration-response curve)” value in assay [1] (increasing concentrations of SAR218645, HEK293 rat mGluR2/Gα16) is recorded as “approximately 25 fold”. Further, the “maximal potentiation of the glutamate response” value in assay [2] is reported as “approximately 10 fold”. For the same molecule, in assay [3], the “effect on the activity of risperidone in the active avoidance test” value was “did not interfere”. Besides, the “effect on the ability of haloperidol and risperidone to alleviate psychostimulant-induced hyperactivity” value in assay [4] is reported as “did not alter”. Moreover, the “effect on locomotor activity” value in assay [5] (amphetamine 2 mg/kg ip, SAR218645 po) was “no effects”; in assay [6] (MK-801 0.2 mg/kg ip, SAR218645 po), “no effects”. The Minimal active dose in assay [5] (setting [9]) is more than 10 mg/kg; in assay [6] (setting [9]), more than 10 mg/kg; in assay [8] (dose-range 1–10, po, CD-1 mice), 3 mg/kg. Moreover, the “effect on glutamate-induced activation” value in assay [7] (10 μM SAR218645) is on record as “no effect”. Moreover, the “calcium response to compound alone” value in assay [7] (SAR218645 alone) was “did not elicit a calcium response”. In addition, in assay [8] (po, DOI 1 mg/kg ip, significant at 3 and 10 mg/kg), the “effect on DOI-induced head twitches” value is “dose-dependently inhibited”.
